Consider four molecules from PubChem BioAssay AID651871 (Sanford-Burnham Center for Chemical Genomics, 2012).

For orientation: IC50 means the concentration at which inhibition is half-maximal.

“And” between values parts separate entries of the source, which are not always exact repeats. Equal entries are not always repeated. The source made the active and inactive calls.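 Rule for the calls: active = compound whose mean IC50 is 10 µM or lower in every cell protection panel where tested; inactive = the rest.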 Bounds are passed on as bounds.

The subject of one assay is H9c2. Briefly: protection of cardiomyocytes from stress damage, SAR follow-up, cell-based, panel, H9c2 and HL-1, ATP luminescence, set 2 (AID 651871).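 Note: cells exposed to stressor for 2 h before ATP readout; potency for protection of cells against peroxide damage not for cytotoxicity.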 To be noted: H9c2/HL-1 cardiomyocytes.
Another assay deals with HL-1. The assay is described as above. Conditions: H9c2/HL-1 cardiomyocytes.
The mark [1] stands for this setting: 2-deoxyglucose stress, with 2-deoxyglucose, mean of runs.
Setting [2] is: H2O2 oxidative stress, with H2O2, mean of runs.

Turning to `COc1ccc2c(c1OC)C(=O)N1c3ccccc3C(=O)N(Cc3cccc(Cl)c3Cl)C21` (centres undefined), the IC50 is 4.57 µM and 6.37 µM and > 79 µM (inactive) in the assay with H9c2 (setting [1]); 0.215 µM and 0.391 µM and 11.7 µM (inactive) in the assay with H9c2 (setting [2]); 2.65 µM and 3.05 µM and > 79 µM (inactive) with HL-1 (setting [1]); > 79 µM (inactive) with HL-1 (setting [2]).
As for `COc1cc(-c2cc(C(=O)Nc3cccc(C(=O)NCc4ccccc4)c3)c3ccccc3n2)cc(OC)c1OC`, the results for the IC50 in the assay with H9c2 (setting [2]) and in the assay with HL-1 (setting [2]) were 0.411 µM and 3.97 µM, respectively.
Take `COc1ccc2nc(-c3cc(OC)c(OC)c(OC)c3)cc(C(=O)NCC(=O)Nc3ccc(C(C)=O)cc3)c2c1`: the IC50 in the assay with H9c2 (setting [1]) was 3.87 µM; in the assay with H9c2 (setting [2]), 0.634 µM and 0.44 µM; in the assay with HL-1 (setting [1]), 4.3 µM; in the assay with HL-1 (setting [2]) it was 6.53 µM and 3.98 µM.
As for `CCOC(=O)c1cccc(NC(=O)CNC(=O)c2cc(-c3cc(OC)c(OC)c(OC)c3)nc3ccccc23)c1`, the IC50 in the assay on H9c2 (setting [1]) was 2.72 µM; with H9c2 (setting [2]) it was 0.28 µM; with HL-1 (setting [1]), 2.9 µM; in the assay with HL-1 (setting [2]) it was 3.41 µM.
